{
  "source": "patent US20030152536A1",
  "about": "“Cosmetic preparations containing waltheria indica extracts” (priority 2000, published 2003)",
  "test_system": "melanin index of forearm skin",
  "assay": "In vivo lightening of color on the forearm of 41 volunteers with Asiatic skin color (melanin index D56/D0)",
  "parameters": "species or system human",
  "settings": "D0 melanin index before, D56 after treatment",
  "experimental": "The effectiveness of the preparations according to the invention by comparison with known preparations was tested in vitro by inhibition of the synthesis of melanin in B 16 melanocytes. The concentration of the active principles (in % by weight) in the cell culture medium and the inhibition in %-rel. in relation to the blank value are shown. An in vivo test was also carried out by measuring the lightening of color on the extensor muscle side of the forearm of 41 volunteers with Asiatic skin color. The depigmenting activity D56/D0 is shown, D0 standing for the melanin index before the treatment and D56 for the index after the treatment.",
  "data": [
    {"smiles": "OC[C@H]1O[C@@H](Oc2ccc(O)cc2)[C@H](O)[C@@H](O)[C@@H]1O", "note": "[Arbutin]", "values": [
      {"measurement": "D56/D0", "setting": "concentration 0.1", "value": 54},
      {"measurement": "D56/D0", "setting": "concentration 0.3", "value": 30}
    ]}
  ]
}
